Reference: patent US20060167271A1, “Purified compounds that inhibit intracellular alphax4/paxillin binding” (priority 2002, published 2006)
Like-named read-outs stand apart in the source and are kept apart here.

What was measured:
[1] = target: T1, Paxillin/α4 binding (immobilized His-tagged α4 tail, soluble recombinant Paxillin) (Homo sapiens, UniProt P13612+P49023); experiment: Immobilized Paxillin/α4 binding assay (ELISA)
T1 construct: The design and production of recombinant cytoplasmic α4 tail polypeptide have been described; made in house; host or cells: E. coli BL21(DE3)pLysS for the α4 tail
Method: FIG. 4 is a schematic representation of the high throughput screening by ELIZA used herein in which the α4 tail is coated onto a Ni-NTA microtiter plate (a), Paxillin is permitted to bind to α4 (b), first antibody is added (anti-Paxillin) (c), second antibody is added (HRP-conjugated, anti-mouse) (d), and Pax/α4 binding efficiency is measured by detection at 490 nm (e). For binding inhibition, compounds were added during Paxillin incubation (step b). […], zero % inhibition was measured from incubation with Paxillin and no compound.
Initially, roughly 40,000 compounds were screened in approximately 2000 wells (most as a mixture of 10 compounds, 50 μM total concentration) in an ELISA assay using an immobilized His-tagged α4 tail [Pfaff et al. (1998) J. Biol. Chem. 273, 6104-6109] and examining the binding inhibition of soluble recombinant Paxillin [Salgia et al. (1995) J. Biol. Chem. 270, 5039-5047] (FIG. 3).
Paxillin/α4 binding assays were performed as follows. Ni-NTA HisSorb microtiter strips (Qiagen) were coated overnight at 4° C. with purified α4 tail integrin (5 μg/ml, 100 μl per well) in PBS buffer (8 mM Na2HPO4, 1.5 mM KH2PO4, 135 mM NaCl, 2.5 mM KCl [pH 7.4]) supplemented with heat-denatured BSA (0.2%). The plates were washed three times with PBS buffer to remove unbound integrin, blocked with 150 μl of heat-denatured 1% BSA (denatured at 85° C. for 30 minutes and supplemented with 0.05% sodium azide) for 1 hour at room temperature, and washed again three times with PBS buffer.
Purified Paxillin in binding buffer (10% DMSO, 0.2% BSA in PBS buffer) was added to the wells at a concentration of 5 μg/ml in the presence or absence of compounds (1 mM DMSO stock solutions). […] As a control, blocked wells without integrin were examined for binding. After 1 hour at room temperature, the wells were washed three times with PBS buffer, incubated with first antibody (12CA5 ascites, 1/10000 in PBS plus 1% BSA, 100 μL) for 1 hour at room temperature, then with second antibody (100 μl HRP-conjugated anti-mouse [Biosource] in PBS buffer plus 1% BSA) for 1 hour at room temperature. Each well was treated with 50 μl of substrate solution (4 mg o-phenylenediamine, 4 μl of 30% H2O2, 80 mM citrate phosphate [pH 5]) and stopped after 10 minutes at room temperature with 50 μl H2SO4 (2 N). Binding was quantitated on a vmax kinetic microplate reader (Molecular Devices) at 490 nm. Zero % inhibition control was measured with Paxillin and no compound, and 100% inhibition control (background) was measured with no Paxillin and no compound. Each well was duplicated and percent inhibition was averaged.

[2] = target: T2, binding of Paxillin to the α4 tail protein (Homo sapiens, UniProt P13612+P49023); experiment: Integrin tail affinity chromatography binding study
T2 construct: The design and production of recombinant cytoplasmic α4 tail polypeptide have been described; made in house; host or cells: E. coli BL21(DE3)pLysS for the α4 tail
Method: FIG. 6 in two parts as 6A and 6B includes results of an affinity chromatography binding study (6A) and scanning densitometry results shown in graphical form for the bound Paxillin (6B). In 6A, recombinant HA-tagged GST-Paxillin (100 nM) was added to Ni^2+-charged resin loaded with α4 tail protein in the absence (lane a) or presence of compound 11-A7B7C7 (lane b, 5 μM; lane c, 25 μM; lane d, 100 μM) or compound 11-A6B6C6 (lane e, 25 μM). Bound protein was collected and separated by SDS-PAGE under reducing conditions, transferred to a nitrocellulose membrane, and stained with HA-tag-specific antibody, 12CA5. In 6B, bound Paxillin was quantified by scanning densitometry of those immunoblots using the NIH Image program. The depicted results are representative from two studies.
In order to confirm the effectiveness and selectivity of Compound 11-A7B7C7 at inhibiting Paxillin/α4 binding, a series of binding studies was conducted using affinity chromatography techniques [Liu S et al. (1999) Nature 402, 676-681; and Pfaff et al. (1998) J. Biol. Chem. 273, 6104-6109]. […] Bound protein was collected and separated by electrophoresis and analyzed by immunoblotting.
Integrin tail affinity chromatography was performed as described [Rose (2001) J. Immunol. 167, 2824-2830]. […]

[3] = tested on: integrin α4β1-mediated migration of Jurkat T cells; experiment: Cell migration assay (modified Boyden chamber); assay type: cell-based; settings: Homo sapiens
Method: Cell migration was assayed in a modified Boyden chamber assay system as previously described [Rose et al. (2001) J. Immunol. 167, 2824-2830]. […] 167, 2824-2830]. Transwells (Costar, Corning) polycarbonate membranes containing 3.0 μm pores were coated with 5 μg/ml recombinant soluble VCAM-1. Membranes were blocked with 2% BSA in PBS for 30 minutes at room temperature. 2.0×10^5 cells in RPMI-1640 containing the indicated concentration of the compound and a final concentration of 0.1% DMSO were added to the top chamber. SDF-1α (R&D Systems) at a final concentration of 15 ng/ml was added to the bottom chamber. Cells were permitted to migrate for 4 hours at 37° C. Cells in the bottom chamber were enumerated with a hemocytometer, and data are expressed as percent inhibition of migration. Depicted are the mean and range of duplicate determinations from one of two studies with similar results.
The Jurkat E6-1 T leukemic cell line was purchased from American Type Culture Collection (ATCC), Rockville, Md. and cultured in RPMI-1640 (Biowhitaker Inc, Walkersville, Md.) supplemented with 10% FCS (Biowhitaker Inc), 1% glutamine, 50 units/ml penicillin, and 50 μg/ml streptomycin (Sigma Chemical, St Louis, Mo.).
Cell migration was assayed in a modified Boyden chamber assay system. […]

[4] = read-out: IC50 of Paxillin/α4 binding inhibition
[5] = read-out: Inhibition of Pax/α4 binding (% at 1 μM)

T1 sequence (P13612 1002-1032 limits assumed): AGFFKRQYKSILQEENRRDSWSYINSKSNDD
T1 sequence (P49023 1-557 isoform P49023-2): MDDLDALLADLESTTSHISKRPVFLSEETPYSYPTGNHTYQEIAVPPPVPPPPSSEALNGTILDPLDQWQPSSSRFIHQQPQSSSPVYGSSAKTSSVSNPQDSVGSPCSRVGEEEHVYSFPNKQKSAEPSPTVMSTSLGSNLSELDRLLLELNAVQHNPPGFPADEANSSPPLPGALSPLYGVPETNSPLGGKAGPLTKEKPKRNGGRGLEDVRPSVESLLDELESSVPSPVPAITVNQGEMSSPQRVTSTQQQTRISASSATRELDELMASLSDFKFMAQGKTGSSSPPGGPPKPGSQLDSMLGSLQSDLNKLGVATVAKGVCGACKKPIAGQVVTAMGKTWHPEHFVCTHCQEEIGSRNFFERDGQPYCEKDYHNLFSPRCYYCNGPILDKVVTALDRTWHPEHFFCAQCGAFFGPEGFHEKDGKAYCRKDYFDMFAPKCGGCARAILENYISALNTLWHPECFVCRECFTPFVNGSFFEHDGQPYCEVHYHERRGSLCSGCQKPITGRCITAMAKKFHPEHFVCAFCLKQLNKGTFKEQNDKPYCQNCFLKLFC
T2 sequence (P13612 1002-1032 limits assumed): as the sequence (P13612 1002-1032 limits assumed) above
T2 sequence (P49023 1-557 isoform P49023-2): as the sequence (P49023 1-557 isoform P49023-2) above

Compound: O=C(O)c1cc2c3c(ccc2[nH]1)NCC3 [Compound 17, H-CDPI-OH]
- Inhibition of Pax/α4 binding (% at 1 μM) ([1]; 1 μM): 11%

Compound: COC(=O)c1cc2c3c(ccc2[nH]1)N(C(=O)c1cc2c4c(ccc2[nH]1)NCC4)CC3 [Compound 21, H-CDPI2-OMe]
- Inhibition of Pax/α4 binding (% at 1 μM) ([1]; 1 μM): 14%

Compound: COC(=O)c1cc2c3c(ccc2[nH]1)N(C(=O)c1cc2c4c(ccc2[nH]1)N(C(=O)c1cc2c5c(ccc2[nH]1)NCC5)CC4)CC3 [Compound 25, H-CDPI3-OMe]
- IC50 [1, 4]: 0.3 µM
- inhibition at 1 µM [1, 5]: 73%

Compound: O=C(O)c1cc2c3c(ccc2[nH]1)N(C(=O)c1cc2c4c(ccc2[nH]1)NCC4)CC3 [Compound 23, H-CDPI2-OH]
- Inhibition of Pax/α4 binding (% at 1 μM) ([1]; 1 μM): 27%

Compound: COC(=O)c1cc2c3c(ccc2[nH]1)N(C(=O)OC(C)(C)C)CC3 [Compound 15, Boc-CDPI-OMe]
- Inhibition of Pax/α4 binding (% at 1 μM) ([1]; 1 μM): 3%

Compound: COC(=O)c1cc2c3c(ccc2[nH]1)N(C(=O)c1cc2c4c(ccc2[nH]1)N(C(=O)c1cc2c5c(ccc2[nH]1)N(C(=O)CCCN(C)C)CC5)CC4)CC3 [Compound 11-A7B7C7, DMABA-CDPI3-OMe]
- inhibition at 1 µM ([1]; 1 μM, read-out: Inhibition (%) of α4/Paxillin Binding by Deconvoluted Samples of 11-AxByCz): 76%
- IC50 [1, 4]: 0.3 µM
- inhibition at 1 µM [1, 5]: 78%
- Binding of Paxillin to the α4 tail protein ([2]; GST-Paxillin 100 nM, immunoblot): markedly reduced
- Quantification of bound Paxillin (scanning densitometry) ([2]; concentrations as low as 5 μM): near background levels
- inhibition at 15 µM ([3]; Jurkat, highest possible dose, 15 μM, read-out: Maximum inhibition of migration): ~70%
- IC50 ([3]; Jurkat T cells, VCAM-1 coated membranes, SDF-1α, 4 hours, read-out: IC50 of inhibition of α4β1-mediated cell migration): ~10000 nM

Compound: Boc-CDPI3-OMe [Compound 24]
- Paxillin/α4 binding inhibition, result in words [1]: substantial loss of activity
- Inhibition of Pax/α4 binding (% at 1 μM) ([1]; 1 μM): 25%

Compound: DMABA-CDPI2-OMe [Compound 22]
- Inhibition of Pax/α4 binding (% at 1 μM) ([1]; 1 μM): 36%

Compound: CC(C)(C)OC(=O)N1CCc2c1ccc1[nH]c(C(=O)O)cc21 [Compound 18, Boc-CDPI-OH]
- Inhibition of Pax/α4 binding (% at 1 μM) ([1]; 1 μM): 6%

Compound: COC(=O)c1cc2c3c(ccc2[nH]1)N(C(=O)c1cc2c4c(ccc2[nH]1)N(C(=O)OC(C)(C)C)CC4)CC3 [Compound 20, Boc-CDPI2-OMe]
- Inhibition of Pax/α4 binding (% at 1 μM) ([1]; 1 μM): 13%

Compound: COC(=O)c1cc2c3c(ccc2[nH]1)NCC3 [Compound 16, H-CDPI-OMe]
- Inhibition of Pax/α4 binding (% at 1 μM) ([1]; 1 μM): 19%

Compound: O=C(O)c1cc2c3c(ccc2[nH]1)N(C(=O)c1cc2c4c(ccc2[nH]1)N(C(=O)c1cc2c5c(ccc2[nH]1)NCC5)CC4)CC3 [Compound 26, H-CDPI3-OH]
- Paxillin/α4 binding inhibition, result in words [1]: only a slight reduction in potency
- inhibition at 1 µM [1, 5]: 68%
- IC50 ([1]; read-out: inhibition of Pax/α4 binding (IC50 in μM)): 0.5 µM

Compound: DMABA-CDPI-OMe [Compound 19]
- Inhibition of Pax/α4 binding (% at 1 μM) ([1]; 1 μM): −3%
